# “Also recorded” adds a separate entry of the source.
# Key:
# HeLa cells [1] = experiment: Apoptosis assay by flow cytometry (annexin V-FITC/PI); assay type: cell-based, human; settings: 48 h
# Experimental: HeLa cells were seeded in 24-well plates at density of 5 × 10^4 cells per well and incubated under standard conditions for 24 h. Next, the cells were treated by compound 5f at 7 or 10 µM for a subsequent 48 h, followed by dissociation of cell monolayers into single cells by TrypLE Express (Gibco, Taastrup, Denmark) - and washing with cold PBS. Thereafter, cells were resuspended in binding buffer at concentration of 10^6 cells/mL. After double staining with Annexin V-FITC and propidium iodide (PI) from an Annexin V-FITC Apoptosis Detection Kit (Millipore, Bedford, MA, USA), cells were analyzed using a NovoCyte Flow Cytometer (ACEA Biosciences Inc., San Diego, CA, USA). For each sample, 10,000 events were acquired.
# HeLa cells [2] = experiment: Mitochondrial membrane potential (JC-1, flow cytometry); assay type: cell-based, human; settings: 48 h, JC-1, HeLa
# Experimental: HeLa cells were cultured in 24-well plates for 24 h under standard conditions and treated by 5f at 7 or 10 µM for a subsequent 48 h. After the treatment, the cells were collected and resuspended at 10^6 cells/mL in PBS-contained JC-1 (5 µg/mL). After 30 min of incubation under standard conditions, the cells were centrifuged, washed with PBS, and analyzed using the NovoCyte Flow Cytometer (ACEA Biosciences Inc., San Diego, CA, USA). In total, 10,000 events were acquired for each sample.
# [3] = test system: activated caspases in HeLa cells; experiment: Metacaspases activity assay (FITC-VAD-FMK); assay type: cell-based, human; settings: dose-dependent
# Experimental: The activity of caspases was determined by using a CaspACE^TM FITC-VAD-FMK (Promega, Madison, WI, USA). Briefly, HeLa cells were cultured in 24-well plates for 24 h under standard conditions and treated by 5f at 7 or 10 µM for 48 h. The cells were collected and incubated with fluorophore-conjugated pancaspase inhibitor FITC-VAD-FMK in darkness for 30 min at room temperature. After incubation, the cells were centrifuged, washed twice with PBS, and analyzed by flow cytometry. For each sample, 10,000 events were acquired.
# [4] = test system: caspase-3/7 in HeLa cells; experiment: Executioner caspases-3/7 activity assay (Caspase-Glo 3/7); assay type: cell-based, human; settings: 48 h
# Experimental: The activity of caspase-3/7 in HeLa cells was evaluated using a Caspase-Glo® 3/7 assay kit (Promega, Madison, WI, USA) according to manufacturer’s instructions. […] After incubation, 100 µL of Caspase-Glo® 3/7 Reagent was added to each wells, the plate was carefully shaken on a plate mixer, then incubated for 30 min in darkness at room temperature. The luminescence was measured using a luminometer (CLARIOstar plate reader (BMG Labtech, Ortenberg, Germany)).
# HeLa cells [5] = experiment: Colony-forming assay; assay type: cell-based, human; settings: 14 days
# Experimental: HeLa cells were seeded in 96-well plates in tetraplicates at a density of 100 cells/well and treated by 5f (0.25, 0.5 µM) for 14 days under standard conditions. Then cell colonies were fixed with 4% paraformaldehyde, stained with crystal violet dye (0.1% w/v), and photographed using a Vilber Lourmat transilluminator (Marne La Vallee, France). The percentage of area covered by cell colonies was calculated using a ColonyArea ImageJ plugin [91].
# HeLa cells [6] = experiment: Cell motility by xCelligence (CIM-plate); assay type: cell-based, human; settings: 0.5 µM, 48 h, nontoxic concentration
# Experimental: HeLa cells were seeded in tetraplicate at 2 × 10^4 cells per well in the upper chamber of CIM-plates, in the presence or absence of 5f at 0.5 µM. To stimulate cell migration, the lower chamber of the CIM-plate contained 10% FBS as chemoattractant. The cell index (electrical impedance) was monitored by the Real-Time Cell Analyzer Dual Plates (RTCA DP) xCelligence System (ACEA Biosciences, San Diego, CA, USA) every 1 h for 48 h.
# [7] = Toxicity assessment in B16 melanoma-bearing mice; assay type: in vivo; settings: five injections, 50 mg/kg i.p.
# Experimental: To generate a metastatic model of tumor progression, 10^5 B16 melanoma cells suspended in 0.2 mL of saline buffer were inoculated into the lateral tail vein of C57Bl/6 mice. On day 4 after tumor transplantation, mice were divided into three groups (n = 9 per group): (1) mice without treatment (control); (2) mice who received intraperitoneal (i.p.) injections of 10% Tween-80 (vehicle); and (3) mice who received i.p. injections of 5f in 10% Tween-80 at a dose of 50 mg/kg. The treatment was carried out three times a week. The total number of injections was five. Mice were sacrificed on day 14 after B16 melanoma transplantation and the lungs were collected for calculation of surface metastases.
# During the experiment, general status of the animals and body weight were monitored. At the end of the experiment, organs were collected and organ indexes were calculated as (organ weight / body weight) × 100%.
smiles,measurement,setting,value
"CC1(C)C2CC[C@]3(C)C(C(=O)C=C4[C@@H]5C[C@@](C)(c6nc(-c7ccccn7)no6)CC[C@]5(C)CC[C@]43C)[C@@]2(C)CC[C@@H]1O (stereo partly drawn) [Compound 5f, 30-nor-3β-hydroxy-11-oxo-20-(3′-(pyridin-2′′-yl)-1′,2′,4′-oxadiazol-5′-yl)-18βH-olean-12-en]",early apoptotic cells (quadrant Q4-4),HeLa cells [1]; 7 µM,12.5%
same,late apoptotic cells (quadrant Q4-2),HeLa cells [1]; 7 µM,60.7%
same,early apoptotic cells (quadrant Q4-4),HeLa cells [1]; 10 µM,8.1%
same,late apoptotic cells (quadrant Q4-2),HeLa cells [1]; 10 µM,66.5%
same,necrotic cells (quadrant Q4-1),HeLa cells [1]; 10 µM,14.2%
same,cells with collapsed membrane potential (gate P3),HeLa cells [2]; 7 µM,72.5%
same,cells with collapsed membrane potential (gate P3),HeLa cells [2]; 10 µM,85.2%
same,metacaspase activation (FITC-VAD-FMK fluorescence),[3],significantly increased the intensity of FITC fluorescence
same,increase of caspase-3/7 activity in comparison with control,[4]; 5 µM,1.3 times
same,increase of caspase-3/7 activity in comparison with control,[4]; 7 µM,1.9 times
same,suppression of colony formation compared to the control,HeLa cells [5]; 0.5 µM,three-fold
same,effect on clonogenic characteristics,HeLa cells [5]; lower concentration (0.25 µM),had no effect on the clonogenic characteristics of HeLa cells
same,effect on motility of HeLa cells,HeLa cells [6],statistically significant suppressed the motility of HeLa cells
same,survival during the experiment,[7],all 5f-treated mice were alive
same,toxic effects in mice (organ indexes),[7]; 50 mg/kg,did not cause toxic and unspecific immunomodulatory effects; also recorded: without systemic toxicity
